Experimental data as given in patent US4505929A, “Sulfur-substituted diphenyl ethers having antiviral activity” (The Dow Chemical Company, priority 1982, dated 1985).
In brackets after ≈: the same amount, converted by molar mass. Where two headings read alike, the source gives them in different places. One block for each molecule: values may come before it.

Assays:
[1] = Cytotoxicity to HeLa cells in tissue culture testing; type: cell-based; conditions: human
Experimental: (§1) Monolayered HeLa cells in 16 millimeter (mm) tissue culture dishes were treated with 1 ml of culture medium (Eagles medium supplemented with fetal calf serum) containing subject compound at an appropriate concentration or containing no compound at all. Culture media such as those described herein are more fully described in standard texts, as for example, Kuchler's Biochemical Methods in Cell Culture and Virology, Dowden, Hutchinson and Ross, Inc., Stroudsberg, PA (1977). Following treatment, cells were challenged with 0.05 ml of rhinovirus type 1A (RV-1A), rhinovirus type 2 (RV-2) or Coxsackie A21 virus (Cox A21) in culture medium. Some of the compounds were also tested against rhinovirus type 5 (RV-5), rhinovirus type 8 (RV-8) or rhinovirus type 64 (RV-64). Cell controls received no viruses.
^x Cytotoxicity figures represent the concentration of the compound,
micrograms/milliliter (μg/ml) found to be toxic to the cell.
means "approximately "; "<<" "considerably less than " and "G.I." means

[2] = tested on: rhinovirus type 1A (RV-1A); test: Tissue culture antiviral test (HeLa cells), RV-1A; type: cell-based; conditions: Enterovirus, 48 and 72 hours post-treatment, read-out: Lowest concentration necessary to cause a 50 percent reduction in cytopathic effect, RV-1A
Experimental: as §1
(§2) ^xx Lowest concentration of the compound (μg/ml) necessary to caus
(§3) a 50 percent reduction in cytopathic effect.

[3] = tested on: rhinovirus type 2 (RV-2); test: Tissue culture antiviral test (HeLa cells), RV-2; type: cell-based; conditions: Enterovirus, 48 and 72 hours post-treatment, read-out: Lowest concentration necessary to cause a 50 percent reduction in cytopathic effect, RV-2
Experimental: as §1, §2, §3

[4] = tested on: Coxsackie A21 virus (Cox A21); test: Tissue culture antiviral test (HeLa cells), Cox A21; type: cell-based; conditions: 48 and 72 hours post-treatment, read-out: Lowest concentration necessary to cause a 50 percent reduction in cytopathic effect, Cox A21
Experimental: as §1, §2, §3

[5] = tested on: rhinovirus type 8 (RV-8); test: Tissue culture antiviral test (HeLa cells), RV-8; type: cell-based; conditions: Enterovirus, 48 and 72 hours post-treatment, read-out: Lowest concentration necessary to cause a 50 percent reduction in cytopathic effect, RV-8
Experimental: as §1, §2, §3

[6] = tested on: rhinovirus type 64 (RV-64); test: Tissue culture antiviral test (HeLa cells), RV-64; type: cell-based; conditions: Enterovirus, 48 and 72 hours post-treatment, read-out: Lowest concentration necessary to cause a 50 percent reduction in cytopathic effect, RV-64
Experimental: as §1, §2, §3

[7] = tested on: Cox A21; test: Single Oral Dose test in Cox A21 infected mice; type: in vivo, Swiss male mice
Experimental: In addition, some of the compounds were tested in animals utilizing the following procedure, hereinafter referred to as the "Single Oral Dose" test. Swiss male mice, 10-12 grams in weight were challenged intraperitoneally (IP) with 0.2 ml of a normally lethal dose, i.e. a virus dose sufficient to cause .congruent.80-100% mortality in infected animals within 10 days of challenge of Cox A21, in phosphate buffered saline containing 1% heat inactivated fetal calf serum. Three hours later mice were treated orally (P.O.) with 0.2 ml of compound suspended in 0.5% hydroxypropyl methylcellulose (Methocel) or with 0.2 ml of 0.5% Methocel containing no compound. […] Mice were observed daily for 7-10 days post-challenge and deaths recorded. A modified Mantel-Haenzel combined chi-square procedure was used to determine significant difference between virus control and treated groups. Chi-square values greater than 3.84 are considered significant (95% confidence level) in this test.

[8] = tested on: Coxsackie A21 virus; test: Continuous Oral Feeding test in Coxsackie A21 infected mice; type: in vivo; conditions: in diet
Experimental: Some of the compounds were also tested in animals utilizing the following procedure, hereinafter referred to as the "Continuous Oral Feeding" test. Coxsackie A21 virus grown on HeLa cells was administered at a concentration that produces 80 to 100% deaths in mice weighing 10 to 11 grams within 10 days, when the mice are injected (IP) with 0.2 ml of virus preparation. Mice were placed on diets containing test compound dispersed in plain commercially available rodent mash chow at a concentration of 0.05% (weight percent) on day 0. On day 1 the mice were challenged with the virus preparation, 0.2 ml/mouse, (IP). Deaths in both control and experimental groups were recorded for the 10 days and the results analyzed by a chi-square (X^2) test. Chi-square values greater than 3.84 indicate the compound is active (95% confidence level).
^xxx Percent (by weight) of test compound in the diet fed to test

[9] = tested on: Hank's (untyped) rhinovirus; test: Inhibition of cytopathic effect in Wl-38 cells, Hank's (untyped); type: cell-based; conditions: Enterovirus, WI-38, 25 μg/ml, Wl-38 human embryonic lung cells, read-out: inhibition grade
Experimental: (§4) Solutions of 4-(4-(methylsulfonyl)phenoxy)-1,2-dichlorobenzene were prepared by dissolving 5 milligrams of the compound in 0.1 ml dimethyl sulfoxide and incubating at 56° C. for at least 15 minutes. This solution was added to 0.9 ml of warmed (56° C.) maintenance medium (49% Eagles, 49% medium 199, 2% fetal calf serum and antibiotics), and the resulting 1.0 ml was then added to 9 ml of warmed (56° C.) maintenance medium. From this solution the final concentrations of 100, 50, 25, or 12.5 μg/ml were made up with maintenance medium.
(§5) Triplicate cell culture tubes (Wl-38 human embryonic lung cell culture tubes) were fed with 1 ml of medium containing the compound at specified concentrations and inoculated with 3-300 TCID50 (3-300 times the tissue culture infective dose 50, i.e., the dose required to infect 50% of the cell cultures tested. Simultaneous viral titrations were performed. The tissue cultures were supplemented with fresh medium when necessary (around 3-4 days) until viral titrations were completed.
(§6) The cell culture tubes were examined daily for cytopathic effect. […] Comparisons were made at that time with the percentage of cell sheet destruction in tubes containing virus compound mixtures. Observed differences of 75% or more were graded "+", 74-50% as "±", and less than 50% as "-" inhibition.

[10] = tested on: rhinovirus type 4; test: Inhibition of cytopathic effect in Wl-38 cells, type 4; type: cell-based; conditions: Enterovirus, WI-38, 25 μg/ml, Wl-38 human embryonic lung cells, read-out: inhibition grade
Experimental: as §4, §5, §6

[11] = tested on: rhinovirus type 6; test: Inhibition of cytopathic effect in Wl-38 cells, type 6; type: cell-based; conditions: Enterovirus, WI-38, 25 μg/ml, Wl-38 human embryonic lung cells, read-out: inhibition grade
Experimental: as §4, §5, §6

[12] = tested on: rhinovirus type 10; test: Inhibition of cytopathic effect in Wl-38 cells, type 10; type: cell-based; conditions: Enterovirus, WI-38, 25 μg/ml, Wl-38 human embryonic lung cells, read-out: inhibition grade
Experimental: as §4, §5, §6

[13] = tested on: rhinovirus type 13; test: Inhibition of cytopathic effect in Wl-38 cells, type 13; type: cell-based; conditions: Enterovirus, WI-38, 25 μg/ml, Wl-38 human embryonic lung cells, read-out: inhibition grade
Experimental: as §4, §5, §6

[14] = tested on: rhinovirus type 17; test: Inhibition of cytopathic effect in Wl-38 cells, type 17; type: cell-based; conditions: Enterovirus, WI-38, 25 μg/ml, Wl-38 human embryonic lung cells, read-out: inhibition grade
Experimental: as §4, §5, §6

[15] = tested on: rhinovirus type 19; test: Inhibition of cytopathic effect in Wl-38 cells, type 19; type: cell-based; conditions: Enterovirus, WI-38, 25 μg/ml, Wl-38 human embryonic lung cells, read-out: inhibition grade
Experimental: as §4, §5, §6

[16] = tested on: rhinovirus type 21; test: Inhibition of cytopathic effect in Wl-38 cells, type 21; type: cell-based; conditions: Enterovirus, WI-38, 25 μg/ml, Wl-38 human embryonic lung cells, read-out: inhibition grade
Experimental: as §4, §5, §6

[17] = tested on: rhinovirus type 29; test: Inhibition of cytopathic effect in Wl-38 cells, type 29; type: cell-based; conditions: Enterovirus, WI-38, 25 μg/ml, Wl-38 human embryonic lung cells, read-out: inhibition grade
Experimental: as §4, §5, §6

[18] = tested on: rhinovirus type 39; test: Inhibition of cytopathic effect in Wl-38 cells, type 39; type: cell-based; conditions: Enterovirus, WI-38, 25 μg/ml, Wl-38 human embryonic lung cells, read-out: inhibition grade
Experimental: as §4, §5, §6

[19] = tested on: rhinovirus type 56; test: Inhibition of cytopathic effect in Wl-38 cells, type 56; type: cell-based; conditions: Enterovirus, WI-38, 25 μg/ml, Wl-38 human embryonic lung cells, read-out: inhibition grade
Experimental: as §4, §5, §6

[20] = tested on: rhinovirus type 58; test: Inhibition of cytopathic effect in Wl-38 cells, type 58; type: cell-based; conditions: Enterovirus, WI-38, 25 μg/ml, Wl-38 human embryonic lung cells, read-out: inhibition grade
Experimental: as §4, §5, §6

[21] = tested on: rhinovirus type 59; test: Inhibition of cytopathic effect in Wl-38 cells, type 59; type: cell-based; conditions: Enterovirus, WI-38, 25 μg/ml, Wl-38 human embryonic lung cells, read-out: inhibition grade
Experimental: as §4, §5, §6

[22] = tested on: rhinovirus type 60; test: Inhibition of cytopathic effect in Wl-38 cells, type 60; type: cell-based; conditions: Enterovirus, WI-38, 25 μg/ml, Wl-38 human embryonic lung cells, read-out: inhibition grade
Experimental: as §4, §5, §6

[23] = tested on: rhinovirus type 64; test: Inhibition of cytopathic effect in Wl-38 cells, type 64; type: cell-based; conditions: Enterovirus, WI-38, 25 μg/ml, Wl-38 human embryonic lung cells, read-out: inhibition grade
Experimental: as §4, §5, §6

[24] = tested on: rhinovirus type 74; test: Inhibition of cytopathic effect in Wl-38 cells, type 74; type: cell-based; conditions: Enterovirus, WI-38, 25 μg/ml, Wl-38 human embryonic lung cells, read-out: inhibition grade
Experimental: as §4, §5, §6

[25] = tested on: rhinovirus type 81; test: Inhibition of cytopathic effect in Wl-38 cells, type 81; type: cell-based; conditions: Enterovirus, WI-38, 25 μg/ml, Wl-38 human embryonic lung cells, read-out: inhibition grade
Experimental: as §4, §5, §6

[26] = tested on: rhinovirus type 68; test: Inhibition of cytopathic effect in Wl-38 cells, type 68; type: cell-based; conditions: Enterovirus, WI-38, 25 μg/ml, Wl-38 human embryonic lung cells, read-out: inhibition grade
Experimental: as §4, §5, §6

[27] = tested on: rhinovirus type 8; test: Inhibition of cytopathic effect in Wl-38 cells, type 8; type: cell-based; conditions: Enterovirus, WI-38, 25 μg/ml, Wl-38 human embryonic lung cells, read-out: inhibition grade
Experimental: as §4, §5, §6

[28] = tested on: rhinovirus type 75; test: Inhibition of cytopathic effect in Wl-38 cells, type 75; type: cell-based; conditions: Enterovirus, WI-38, 25 μg/ml, Wl-38 human embryonic lung cells, read-out: inhibition grade
Experimental: as §4, §5, §6

[29] = Acute toxicity in rats; conditions: rat, in vivo
[30] = Acute oral toxicity in beagle dogs; conditions: dog, in vivo
[31] = tested on: Picornaviruses; test: Antiviral effectiveness against picornaviruses, overall; type: cell-based
Experimental: as §1
Solutions of 4-(4-(methylsulfonyl)phenoxy)-1,2-dichlorobenzene were prepared by dissolving 5 milligrams of the compound in 0.1 ml dimethyl sulfoxide and incubating at 56° C. for at least 15 minutes. This solution was added to 0.9 ml of warmed (56° C.) maintenance medium (49% Eagles, 49% medium 199, 2% fetal calf serum and antibiotics), and the resulting 1.0 ml was then added to 9 ml of warmed (56° C.) maintenance medium. From this solution the final concentrations of 100, 50, 25, or 12.5 μg/ml were made up with maintenance medium. […]

[32] = tested on: rhinovirus type 5 (RV-5); test: Tissue culture antiviral test (HeLa cells), RV-5; type: cell-based; conditions: Enterovirus, 48 and 72 hours post-treatment, read-out: Lowest concentration necessary to cause a 50 percent reduction in cytopathic effect, RV-5
Experimental: as §1, §2, §3

Structure (SMILES): CS(=O)(=O)c1ccc(Oc2ccc(Cl)c(Cl)c2)cc1 [Example 1, 4-(4-(Methylsulfonyl)phenoxy)-1,2-dichlorobenzene]
MCC ([1]; G.I. = growth inhibition: at the concentration shown the compound inhibited growth of the tissue culture, read-out: Cytotoxicity (G.I.)): 50 to 100 µg/mL
EC50 [2]: 0.25 µg/mL (≈ 0.788 µM)
EC50 [3]: 0.25 µg/mL (≈ 0.788 µM)
EC50 [4]: 2.5 µg/mL (≈ 7.88 µM)
EC50 [5]: ~50 µg/mL (≈ 158 µM)
EC50 [6]: 0.25 µg/mL (≈ 0.788 µM)
antiviral activity in Single Oral Dose test [7]: exhibited antiviral activity
antiviral activity in Continuous Oral Feeding test [8]: exhibited antiviral activity
inhibition at 25 µg/mL [9]: ≥ 75%
inhibition at 25 µg/mL [10]: ≥ 75%
inhibition at 25 µg/mL [11]: ≥ 75%
inhibition at 25 µg/mL [12]: ≥ 75%
inhibition at 25 µg/mL [13]: ≥ 75%
inhibition at 25 µg/mL [14]: ≥ 75%
inhibition at 25 µg/mL [15]: ≥ 75%
inhibition at 25 µg/mL [16]: ≥ 75%
inhibition at 25 µg/mL [17]: ≥ 75%
inhibition at 25 µg/mL [18]: ≥ 75%
inhibition at 25 µg/mL [19]: ≥ 75%
inhibition at 25 µg/mL [20]: ≥ 75%
inhibition at 25 µg/mL [21]: ≥ 75%
inhibition at 25 µg/mL [22]: ≥ 75%
inhibition at 25 µg/mL [23]: ≥ 75%
inhibition at 25 µg/mL [24]: ≥ 75%
inhibition at 25 µg/mL [25]: ≥ 75%
inhibition at 25 µg/mL [26]: 50 to 74%
inhibition at 25 µg/mL [27]: < 50%
inhibition at 25 µg/mL [28]: < 50%
LD50 ([29]; ip, intraperitoneal, read-out: acute toxicity, intraperitoneal administration): > 1000 mg/kg
LD50 ([29]; oral, read-out: acute oral toxicity): > 2000 mg/kg
LD50 [30]: > 2000 mg/kg
effectiveness against Picornaviruses [31]: particularly effective against Picornaviruses

EC50 [2]: 0.312 µg/mL (≈ 0.714 µM)
EC50 [3]: 0.3 µg/mL (≈ 0.686 µM)
EC50 [4]: ≤ 0.3 µg/mL
EC50 [32]: 0.625 µg/mL (≈ 1.43 µM)
EC50 [5]: ≤ 0.312 µg/mL
EC50 [6]: 0.625 µg/mL (≈ 1.43 µM)
Structure (SMILES): CCN(CC)S(=O)(=O)c1ccc(Oc2ccc(S(=O)(=O)C(F)(F)F)cc2)cc1 [Example 26, N,N-Diethyl-4-(4-((trifluoromethyl)sulfonyl)phenoxy)benzenesulfonamide]
MCC ([1]; concentration found to be toxic to the cell, observed at 48 and 72 hours, read-out: Cytotoxicity): 0.625 µg/mL
